Measured values: ChEMBL document CHEMBL1255302, “Genetic structures at the origin of acquisition of the beta-lactamase bla KPC gene” (2008)
Values after ≈ are worked out from the molar mass of the structure shown.

Assays:
Type in all cases: functional
Escherichia coli [1] = test: Antibacterial activity against Escherichia coli harboring pRYC plasmid expressing blaKPC gene by Etest method
Escherichia coli [2] = test: Antibacterial activity against Escherichia coli harboring pCOL plasmid expressing blaKPC gene by Etest method in presence of beta-lactamase inhibitor clavulanic acid
Klebsiella pneumoniae [3] = test: Antibacterial activity against Klebsiella pneumoniae YC by Etest method
Klebsiella pneumoniae [4] = test: Antibacterial activity against Klebsiella pneumoniae 633 by Etest method in presence of beta-lactamase inhibitor clavulanic acid
Escherichia coli [5] = test: Antibacterial activity against Escherichia coli harboring pBC2303 expressing blaKPC gene plasmid by Etest method in presence of beta-lactamase inhibitor clavulanic acid
Escherichia coli [6] = test: Antibacterial activity against Escherichia coli harboring pBC633 plasmid expressing blaKPC gene by Etest method in presence of beta-lactamase inhibitor clavulanic acid
Escherichia coli [7] = test: Antibacterial activity against Escherichia coli harboring pNYC plasmid expressing blaKPC gene by Etest method in presence of beta-lactamase inhibitor clavulanic acid
Escherichia coli [8] = test: Antibacterial activity against Escherichia coli harboring pRYC plasmid expressing blaKPC gene by Etest method in presence of beta-lactamase inhibitor clavulanic acid
Escherichia coli [9] = test: Antibacterial activity against Escherichia coli harboring pBC2303 expressing blaKPC gene plasmid by Etest method
Klebsiella pneumoniae [10] = test: Antibacterial activity against Klebsiella pneumoniae KN2303 by Etest method in presence of beta-lactamase inhibitor clavulanic acid
Klebsiella pneumoniae [11] = test: Antibacterial activity against Klebsiella pneumoniae 633 by Etest method
Pseudomonas aeruginosa [12] = test: Antibacterial activity against Pseudomonas aeruginosa KG2505 by Etest method in presence of beta-lactamase inhibitor clavulanic acid
Pseudomonas aeruginosa [13] = test: Antibacterial activity against Pseudomonas aeruginosa 2404 plasmid by Etest method in presence of beta-lactamase inhibitor clavulanic acid
Klebsiella pneumoniae [14] = test: Antibacterial activity against Klebsiella pneumoniae GR by Etest method in presence of beta-lactamase inhibitor clavulanic acid
Klebsiella pneumoniae [15] = test: Antibacterial activity against Klebsiella pneumoniae YC by Etest method in presence of beta-lactamase inhibitor clavulanic acid
Escherichia coli [16] = test: Antibacterial activity against Escherichia coli harboring pCOL plasmid expressing blaKPC gene by Etest method
Escherichia coli [17] = test: Antibacterial activity against Escherichia coli DH10B expressing blaKPC gene by Etest method in presence of beta-lactamase inhibitor clavulanic acid
Pseudomonas aeruginosa [18] = test: Antibacterial activity against Pseudomonas aeruginosa 2404 plasmid by Etest method
Escherichia coli [19] = test: Antibacterial activity against Escherichia coli harboring pNYC plasmid expressing blaKPC gene by Etest method
Klebsiella pneumoniae [20] = test: Antibacterial activity against Klebsiella pneumoniae GR by Etest method
Pseudomonas aeruginosa [21] = test: Antibacterial activity against Pseudomonas aeruginosa KG2505 harboring pCOL plasmid by Etest method
Pseudomonas aeruginosa [22] = test: Antibacterial activity against Pseudomonas aeruginosa KG2505 harboring pCOL plasmid by Etest method in presence of beta-lactamase inhibitor clavulanic acid
Escherichia coli [23] = test: Antibacterial activity against Escherichia coli DH10B expressing blaKPC gene by Etest method
Escherichia coli [24] = test: Antibacterial activity against Escherichia coli harboring pNGR plasmid expressing blaKPC gene by Etest method
Klebsiella pneumoniae [25] = test: Antibacterial activity against Klebsiella pneumoniae KN2303 by Etest method
Pseudomonas aeruginosa [26] = test: Antibacterial activity against Pseudomonas aeruginosa KG2505 by Etest method
Escherichia coli [27] = test: Antibacterial activity against Escherichia coli harboring pNGR plasmid expressing blaKPC gene by Etest method in presence of beta-lactamase inhibitor clavulanic acid
Escherichia coli [28] = test: Antibacterial activity against Escherichia coli harboring pBC633 plasmid expressing blaKPC gene by Etest method

SMILES	MIC (Escherichia coli [1]) [mg/L]	MIC (Escherichia coli [2]) [mg/L]	MIC (Klebsiella pneumoniae [3]) [mg/L]	MIC (Klebsiella pneumoniae [4]) [mg/L]	MIC (Escherichia coli [5]) [mg/L]	MIC (Escherichia coli [6]) [mg/L]	MIC (Escherichia coli [7]) [mg/L]	MIC (Escherichia coli [8]) [mg/L]	MIC (Escherichia coli [9]) [mg/L]	MIC (Klebsiella pneumoniae [11]) [mg/L]	MIC (Escherichia coli [16]) [mg/L]	MIC (Pseudomonas aeruginosa [18]) [mg/L]	MIC (Escherichia coli [19]) [mg/L]	MIC (Klebsiella pneumoniae [20]) [mg/L]	MIC (Pseudomonas aeruginosa [21]) [mg/L]	MIC (Escherichia coli [23]) [mg/L]	MIC (Escherichia coli [24]) [mg/L]	MIC (Klebsiella pneumoniae [25]) [mg/L]	MIC (Pseudomonas aeruginosa [26]) [mg/L]	MIC (Escherichia coli [28]) [mg/L]	other results
C[C@@H](O)[C@H]1C(=O)N2C(C(=O)O)=C(S[C@@H]3CN[C@H](C(=O)N(C)C)C3)[C@H](C)[C@H]12 [MEROPENEM]	3 (≈ 7.82 µM)	0.002	2 (≈ 5.22 µM)	2	0.12	0.38	0.25	2	0.38 (≈ 0.991 µM)	4 (≈ 10.4 µM)	0.01 (≈ 0.0261 µM)	> 32	2 (≈ 5.22 µM)	6 (≈ 15.6 µM)	> 32	0.38 (≈ 0.991 µM)	0.38 (≈ 0.991 µM)	> 32	0.05 (≈ 0.13 µM)	2 (≈ 5.22 µM)	MIC (Klebsiella pneumoniae [10]): > 32 mg/L; MIC (Pseudomonas aeruginosa [12]): 0.01 mg/L; MIC (Pseudomonas aeruginosa [13]): > 32 mg/L; MIC (Klebsiella pneumoniae [14]): 3 mg/L; MIC (Klebsiella pneumoniae [15]): 1 mg/L; MIC (Escherichia coli [17]): 0.1 mg/L; MIC (Pseudomonas aeruginosa [22]): 3 mg/L; MIC (Escherichia coli [27]): 0.01 mg/L
CC(=O)OCC1=C(C(=O)O)N2C(=O)[C@@H](NC(=O)Cc3cccs3)[C@H]2SC1 [CEPHALOTHIN]	> 256	–	> 256	–	–	–	–	–	> 256	> 256	2 (≈ 5.04 µM)	> 256	> 256	> 256	> 256	256 (≈ 646 µM)	> 256	> 256	2 (≈ 5.04 µM)	> 256	–
CC1(C)S[C@@H]2[C@H](NC(=O)[C@H](C(=O)O)c3ccsc3)C(=O)N2[C@H]1C(=O)O [TICARCILLIN]	> 256	1.5	> 256	> 256	> 256	> 256	> 256	> 256	> 256	> 256	2 (≈ 5.2 µM)	> 256	> 256	> 256	> 256	> 256	> 256	> 256	0.38 (≈ 0.988 µM)	> 256	MIC (Klebsiella pneumoniae [10]): > 256 mg/L; MIC (Pseudomonas aeruginosa [12]): 0.25 mg/L; MIC (Pseudomonas aeruginosa [13]): > 256 mg/L; MIC (Klebsiella pneumoniae [14]): > 256 mg/L; MIC (Klebsiella pneumoniae [15]): > 256 mg/L; MIC (Escherichia coli [17]): > 256 mg/L; MIC (Pseudomonas aeruginosa [22]): > 256 mg/L; MIC (Escherichia coli [27]): > 256 mg/L
CO[C@@]1(NC(=O)Cc2cccs2)C(=O)N2C(C(=O)O)=C(COC(N)=O)CS[C@@H]21 [CEFOXITIN]	> 32	–	> 32	–	–	–	–	–	8 (≈ 18.7 µM)	> 32	2 (≈ 4.68 µM)	> 64	2 (≈ 4.68 µM)	> 32	> 32	2 (≈ 4.68 µM)	4 (≈ 9.36 µM)	> 32	0.25 (≈ 0.585 µM)	> 32	–
CCN1CCN(C(=O)N[C@@H](C(=O)N[C@@H]2C(=O)N3[C@@H]2SC(C)(C)[C@@H]3C(=O)O)c2ccccc2)C(=O)C1=O [PIPERACILLIN]	> 256	–	> 256	–	–	–	–	–	> 256	> 256	1.5 (≈ 2.9 µM)	> 256	> 256	> 256	> 256	> 256	128 (≈ 247 µM)	> 256	0.38 (≈ 0.734 µM)	> 256	–
C[C@H]1[C@H](NC(=O)/C(=N\OC(C)(C)C(=O)O)c2csc(N)n2)C(=O)N1S(=O)(=O)O [AZTREONAM]	–	–	–	–	–	–	–	–	192 (≈ 441 µM)	–	–	–	16 (≈ 36.7 µM)	–	–	24 (≈ 55.1 µM)	16 (≈ 36.7 µM)	–	–	–	–
